Here are results for 3 molecules from the NIST ThermoML archive (doi:10.1016/j.jct.2012.12.015).

± gives the expanded uncertainty stated by the source.

For data set [1] the following is noted: Crystal; visual observation.
The nature of data set [2]: xn = mol fraction of the nth substance listed. The note with it: 101 kPa, Liquid, Pulse-echo method, x2 = 0.5.

For `[Ag][I]` [silver iodide], the Normal melting temperature in data set [1] is 559 ± 1 °C.
As usually defined, the speed of sound is how fast a sound wave travels through the sample. Turning to `[Ag][I]` [silver iodide] + [Cl-].[Na+], the speed of sound in data set [2] (1065 K) was 1360 ± 8 m/s; in data set [2] (1071 K) it was 1357 ± 8 m/s; in data set [2] (1075 K) it was 1354 ± 8 m/s.
`[Cl-].[Na+]` [sodium chloride]: the Normal melting temperature in data set [1] came to 801 ± 1 °C.
